Eight compounds from ChEMBL document CHEMBL5291721, “A preclinical secondary pharmacology resource illuminates target-adverse drug reaction associations of marketed drugs” (Nat Commun, 2023) can be followed below.

The structures appear in SMILES notation.

Targets include Histamine H3 receptor (Homo sapiens, UniProt Q9Y5N1); Mu-type opioid receptor (Homo sapiens, UniProt P35372); D(1A) dopamine receptor (Homo sapiens, UniProt P21728).
For experiment [1], the target named is Voltage-gated inwardly rectifying potassium channel KCNH2 (Homo sapiens, UniProt Q12809). The class given is functional.
Chain of Voltage-gated inwardly rectifying potassium channel KCNH2 (Q12809 whole entry): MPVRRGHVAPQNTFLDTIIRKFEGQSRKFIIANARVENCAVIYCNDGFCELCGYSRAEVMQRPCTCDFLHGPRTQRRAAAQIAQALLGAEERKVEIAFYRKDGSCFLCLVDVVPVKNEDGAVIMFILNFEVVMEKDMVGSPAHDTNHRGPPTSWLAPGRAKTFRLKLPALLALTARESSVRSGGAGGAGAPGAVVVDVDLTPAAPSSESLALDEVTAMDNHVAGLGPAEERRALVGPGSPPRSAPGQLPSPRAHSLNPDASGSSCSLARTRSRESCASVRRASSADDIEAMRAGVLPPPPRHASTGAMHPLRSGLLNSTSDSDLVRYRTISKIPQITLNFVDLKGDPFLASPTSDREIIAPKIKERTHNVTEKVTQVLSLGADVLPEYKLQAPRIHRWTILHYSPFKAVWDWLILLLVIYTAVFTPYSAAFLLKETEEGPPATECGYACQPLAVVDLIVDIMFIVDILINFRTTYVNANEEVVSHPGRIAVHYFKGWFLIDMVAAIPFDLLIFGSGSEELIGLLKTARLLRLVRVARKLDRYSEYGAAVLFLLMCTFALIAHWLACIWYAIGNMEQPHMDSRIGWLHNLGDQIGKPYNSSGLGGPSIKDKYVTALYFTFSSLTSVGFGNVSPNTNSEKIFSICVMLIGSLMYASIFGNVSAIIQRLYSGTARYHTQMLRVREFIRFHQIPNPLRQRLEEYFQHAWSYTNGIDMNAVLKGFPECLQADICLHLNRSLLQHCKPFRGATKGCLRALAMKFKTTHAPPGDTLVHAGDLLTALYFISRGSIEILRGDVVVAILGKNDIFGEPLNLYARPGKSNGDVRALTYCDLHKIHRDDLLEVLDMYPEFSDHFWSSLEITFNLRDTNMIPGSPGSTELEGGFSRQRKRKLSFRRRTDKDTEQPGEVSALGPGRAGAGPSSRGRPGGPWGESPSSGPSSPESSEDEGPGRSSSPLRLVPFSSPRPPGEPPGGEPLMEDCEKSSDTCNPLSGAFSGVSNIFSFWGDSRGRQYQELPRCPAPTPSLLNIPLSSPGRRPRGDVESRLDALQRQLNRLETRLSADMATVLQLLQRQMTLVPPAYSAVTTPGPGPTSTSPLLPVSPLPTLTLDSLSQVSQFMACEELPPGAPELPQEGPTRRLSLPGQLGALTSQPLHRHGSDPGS
The target in a further experiment is Acetylcholinesterase (Homo sapiens, UniProt P22303). Format: functional.
Chain of Acetylcholinesterase (P22303 whole entry): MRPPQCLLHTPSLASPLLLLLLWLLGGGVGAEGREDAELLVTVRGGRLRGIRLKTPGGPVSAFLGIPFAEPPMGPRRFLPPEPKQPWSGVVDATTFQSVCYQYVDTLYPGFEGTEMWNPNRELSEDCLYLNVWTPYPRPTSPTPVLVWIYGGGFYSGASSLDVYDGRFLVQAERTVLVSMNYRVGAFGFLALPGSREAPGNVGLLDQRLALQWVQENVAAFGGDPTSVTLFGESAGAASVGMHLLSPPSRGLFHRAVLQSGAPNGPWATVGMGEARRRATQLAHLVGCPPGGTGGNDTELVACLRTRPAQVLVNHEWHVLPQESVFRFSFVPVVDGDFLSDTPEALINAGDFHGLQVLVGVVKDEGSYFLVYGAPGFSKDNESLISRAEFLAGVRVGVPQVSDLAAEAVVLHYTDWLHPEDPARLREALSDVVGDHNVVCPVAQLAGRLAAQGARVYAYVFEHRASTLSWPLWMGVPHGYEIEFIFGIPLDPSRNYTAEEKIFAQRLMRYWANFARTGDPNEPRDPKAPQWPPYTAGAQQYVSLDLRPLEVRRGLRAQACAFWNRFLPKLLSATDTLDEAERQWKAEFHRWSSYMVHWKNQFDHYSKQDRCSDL
The target in experiment [2] is T1, Amine oxidase [flavin-containing] A (Homo sapiens, UniProt P21397).
T1 sequence (P21397 whole entry): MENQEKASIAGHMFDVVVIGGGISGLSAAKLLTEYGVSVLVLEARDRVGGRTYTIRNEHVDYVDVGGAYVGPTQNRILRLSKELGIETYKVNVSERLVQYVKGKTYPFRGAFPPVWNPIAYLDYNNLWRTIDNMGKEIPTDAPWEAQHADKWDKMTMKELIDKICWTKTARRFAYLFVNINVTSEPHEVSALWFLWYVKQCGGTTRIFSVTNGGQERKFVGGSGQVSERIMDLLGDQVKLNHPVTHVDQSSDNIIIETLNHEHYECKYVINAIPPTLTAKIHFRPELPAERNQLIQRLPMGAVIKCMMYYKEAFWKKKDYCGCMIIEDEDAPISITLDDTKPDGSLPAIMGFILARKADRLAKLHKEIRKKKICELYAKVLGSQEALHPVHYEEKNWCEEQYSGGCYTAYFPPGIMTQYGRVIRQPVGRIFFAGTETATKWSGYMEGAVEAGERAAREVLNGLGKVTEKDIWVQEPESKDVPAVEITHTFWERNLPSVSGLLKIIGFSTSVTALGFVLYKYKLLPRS
The class given is functional.

A further experiment addresses T2, Thromboxane A2 receptor (Homo sapiens, UniProt P21731).
T2 sequence (P21731 whole entry): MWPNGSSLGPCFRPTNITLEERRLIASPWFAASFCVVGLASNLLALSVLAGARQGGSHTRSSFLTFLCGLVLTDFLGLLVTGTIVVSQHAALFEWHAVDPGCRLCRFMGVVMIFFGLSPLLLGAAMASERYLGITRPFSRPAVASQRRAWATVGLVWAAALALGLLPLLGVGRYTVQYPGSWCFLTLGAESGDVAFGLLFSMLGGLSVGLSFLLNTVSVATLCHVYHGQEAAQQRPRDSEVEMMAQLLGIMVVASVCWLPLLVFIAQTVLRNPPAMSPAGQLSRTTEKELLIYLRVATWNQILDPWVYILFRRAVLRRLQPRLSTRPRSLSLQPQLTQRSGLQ
The class given is functional, cell-based.

Experiment [3] concerns the target cGMP-inhibited 3',5'-cyclic phosphodiesterase 3A (Homo sapiens, UniProt Q14432). The class given is functional.
Experiment [4] has as its target Sodium-dependent dopamine transporter (Homo sapiens, UniProt Q01959).
In experiment [5] the target is 3',5'-cyclic-AMP phosphodiesterase 4A (Homo sapiens, UniProt P27815). The class given is functional.
The target of experiment [6] is T3, Alpha-2A adrenergic receptor (Homo sapiens, UniProt P08913).
T3 sequence (P08913 whole entry): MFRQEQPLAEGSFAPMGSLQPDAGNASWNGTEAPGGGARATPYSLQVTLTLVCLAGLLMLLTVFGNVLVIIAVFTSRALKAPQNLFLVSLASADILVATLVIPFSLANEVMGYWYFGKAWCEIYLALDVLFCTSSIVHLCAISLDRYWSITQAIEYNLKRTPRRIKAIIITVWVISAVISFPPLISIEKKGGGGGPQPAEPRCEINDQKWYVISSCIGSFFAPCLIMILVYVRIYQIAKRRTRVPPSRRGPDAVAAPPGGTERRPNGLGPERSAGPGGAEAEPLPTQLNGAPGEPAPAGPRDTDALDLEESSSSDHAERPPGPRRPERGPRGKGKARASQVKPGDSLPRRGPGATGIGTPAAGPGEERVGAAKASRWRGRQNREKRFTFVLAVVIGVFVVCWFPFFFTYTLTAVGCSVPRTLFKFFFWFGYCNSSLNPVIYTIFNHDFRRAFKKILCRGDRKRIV

The target in experiment [7] is T4, Prostaglandin G/H synthase 1 (Homo sapiens, UniProt P23219). Format: functional.
The target of experiment [8] is T5, Alpha-1A adrenergic receptor (Homo sapiens, UniProt P35348).
T5 sequence (P35348 whole entry): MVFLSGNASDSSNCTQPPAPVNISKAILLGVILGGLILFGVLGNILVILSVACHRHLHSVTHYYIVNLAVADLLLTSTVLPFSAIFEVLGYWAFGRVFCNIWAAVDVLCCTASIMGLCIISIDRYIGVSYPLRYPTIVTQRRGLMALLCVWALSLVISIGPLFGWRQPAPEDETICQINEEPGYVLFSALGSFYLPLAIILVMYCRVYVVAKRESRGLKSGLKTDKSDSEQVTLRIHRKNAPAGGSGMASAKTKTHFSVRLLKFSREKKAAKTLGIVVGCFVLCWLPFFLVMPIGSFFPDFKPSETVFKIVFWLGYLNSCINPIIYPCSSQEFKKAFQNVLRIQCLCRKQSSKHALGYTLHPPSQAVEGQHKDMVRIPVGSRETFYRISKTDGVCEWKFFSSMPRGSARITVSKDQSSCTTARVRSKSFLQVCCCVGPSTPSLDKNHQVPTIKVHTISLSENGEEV
The class given is functional, cell-based.

The target in experiment [9] is 5-hydroxytryptamine receptor 2B (Homo sapiens, UniProt P41595). The class given is functional, cell-based.
Chain of 5-hydroxytryptamine receptor 2B (P41595 whole entry): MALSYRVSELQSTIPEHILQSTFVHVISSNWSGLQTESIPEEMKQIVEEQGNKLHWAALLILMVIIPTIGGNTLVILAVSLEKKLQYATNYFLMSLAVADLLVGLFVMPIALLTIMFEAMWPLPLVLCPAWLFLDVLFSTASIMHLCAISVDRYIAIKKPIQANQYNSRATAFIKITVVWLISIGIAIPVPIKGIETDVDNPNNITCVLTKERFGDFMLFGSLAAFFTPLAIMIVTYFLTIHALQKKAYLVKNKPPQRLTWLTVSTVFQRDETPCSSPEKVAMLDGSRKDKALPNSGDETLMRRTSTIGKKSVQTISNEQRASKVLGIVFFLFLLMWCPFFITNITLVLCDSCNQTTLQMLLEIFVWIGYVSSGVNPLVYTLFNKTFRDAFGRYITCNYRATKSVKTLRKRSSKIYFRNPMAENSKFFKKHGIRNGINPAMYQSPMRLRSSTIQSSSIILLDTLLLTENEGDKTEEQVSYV
For experiment [10], the target named is T6, 5-hydroxytryptamine receptor 1A (Homo sapiens, UniProt P08908).
T6 sequence (P08908 whole entry): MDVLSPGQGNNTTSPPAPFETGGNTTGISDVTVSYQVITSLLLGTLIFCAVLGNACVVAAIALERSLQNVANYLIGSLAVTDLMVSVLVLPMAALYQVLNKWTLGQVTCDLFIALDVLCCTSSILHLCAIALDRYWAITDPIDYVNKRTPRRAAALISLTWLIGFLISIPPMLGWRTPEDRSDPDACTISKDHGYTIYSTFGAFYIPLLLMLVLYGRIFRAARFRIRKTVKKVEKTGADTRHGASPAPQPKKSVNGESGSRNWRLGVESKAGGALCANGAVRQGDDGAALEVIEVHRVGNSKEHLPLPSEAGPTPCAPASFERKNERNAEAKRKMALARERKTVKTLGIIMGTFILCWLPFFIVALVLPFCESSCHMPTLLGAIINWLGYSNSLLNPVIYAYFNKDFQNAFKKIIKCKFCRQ

For experiment [11], the target named is T4, Prostaglandin G/H synthase 1. Format: functional. This is another data set of the same source.
Note: assay procedure not described here.

Chain of cGMP-inhibited 3',5'-cyclic phosphodiesterase 3A (Q14432 whole entry): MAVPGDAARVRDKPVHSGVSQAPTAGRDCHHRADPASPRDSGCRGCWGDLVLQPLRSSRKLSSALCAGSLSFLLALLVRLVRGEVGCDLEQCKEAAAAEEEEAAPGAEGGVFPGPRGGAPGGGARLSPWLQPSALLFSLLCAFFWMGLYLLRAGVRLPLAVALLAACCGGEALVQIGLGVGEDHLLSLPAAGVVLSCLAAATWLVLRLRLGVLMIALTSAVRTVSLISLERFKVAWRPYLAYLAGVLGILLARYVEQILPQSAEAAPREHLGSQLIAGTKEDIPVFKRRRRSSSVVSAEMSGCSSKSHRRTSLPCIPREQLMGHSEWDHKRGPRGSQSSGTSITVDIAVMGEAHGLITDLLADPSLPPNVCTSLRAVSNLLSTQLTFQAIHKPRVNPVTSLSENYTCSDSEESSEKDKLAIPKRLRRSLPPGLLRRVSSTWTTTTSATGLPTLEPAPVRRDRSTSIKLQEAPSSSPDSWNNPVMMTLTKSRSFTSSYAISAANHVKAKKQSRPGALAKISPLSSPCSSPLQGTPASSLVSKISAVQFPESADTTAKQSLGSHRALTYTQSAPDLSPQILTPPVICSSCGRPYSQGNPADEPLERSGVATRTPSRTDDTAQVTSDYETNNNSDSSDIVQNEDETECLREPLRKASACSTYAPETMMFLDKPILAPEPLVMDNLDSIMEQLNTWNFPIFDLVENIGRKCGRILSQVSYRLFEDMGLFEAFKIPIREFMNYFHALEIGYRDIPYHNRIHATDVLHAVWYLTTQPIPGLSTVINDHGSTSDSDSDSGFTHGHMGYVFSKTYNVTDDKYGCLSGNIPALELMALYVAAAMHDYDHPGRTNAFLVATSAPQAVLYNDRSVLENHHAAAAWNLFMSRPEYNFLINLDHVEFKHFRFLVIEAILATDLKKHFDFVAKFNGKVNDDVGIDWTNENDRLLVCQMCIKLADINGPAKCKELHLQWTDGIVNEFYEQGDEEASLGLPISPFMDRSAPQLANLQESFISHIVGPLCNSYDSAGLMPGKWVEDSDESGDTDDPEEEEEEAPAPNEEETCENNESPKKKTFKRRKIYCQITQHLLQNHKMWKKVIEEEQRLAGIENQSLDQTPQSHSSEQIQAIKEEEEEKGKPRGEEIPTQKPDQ
Chain of Histamine H3 receptor (Q9Y5N1 whole entry): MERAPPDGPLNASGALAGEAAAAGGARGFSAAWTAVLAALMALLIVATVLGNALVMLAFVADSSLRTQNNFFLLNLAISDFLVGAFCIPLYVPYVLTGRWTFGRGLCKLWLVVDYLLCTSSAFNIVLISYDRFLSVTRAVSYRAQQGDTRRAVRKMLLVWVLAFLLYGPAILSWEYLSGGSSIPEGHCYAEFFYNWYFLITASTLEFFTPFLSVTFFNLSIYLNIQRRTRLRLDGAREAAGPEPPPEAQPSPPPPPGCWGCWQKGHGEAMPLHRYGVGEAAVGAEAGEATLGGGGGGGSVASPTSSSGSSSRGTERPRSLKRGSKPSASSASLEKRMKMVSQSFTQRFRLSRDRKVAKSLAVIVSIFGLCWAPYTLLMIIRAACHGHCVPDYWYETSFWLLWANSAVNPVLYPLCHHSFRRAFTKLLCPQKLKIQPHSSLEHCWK
Chain of D(1A) dopamine receptor (P21728 whole entry): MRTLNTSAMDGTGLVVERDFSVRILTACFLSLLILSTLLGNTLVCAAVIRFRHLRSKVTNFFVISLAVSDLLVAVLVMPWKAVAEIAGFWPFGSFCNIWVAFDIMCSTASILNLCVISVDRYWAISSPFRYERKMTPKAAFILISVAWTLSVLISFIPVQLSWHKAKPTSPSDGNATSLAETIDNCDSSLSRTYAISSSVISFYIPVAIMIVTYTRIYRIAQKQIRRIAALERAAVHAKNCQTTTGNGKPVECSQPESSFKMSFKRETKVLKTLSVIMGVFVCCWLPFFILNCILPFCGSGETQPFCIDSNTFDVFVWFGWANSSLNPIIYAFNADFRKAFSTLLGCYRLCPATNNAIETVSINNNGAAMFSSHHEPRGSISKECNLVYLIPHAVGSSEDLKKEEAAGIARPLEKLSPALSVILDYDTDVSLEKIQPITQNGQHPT
Chain of Sodium-dependent dopamine transporter (Q01959 whole entry): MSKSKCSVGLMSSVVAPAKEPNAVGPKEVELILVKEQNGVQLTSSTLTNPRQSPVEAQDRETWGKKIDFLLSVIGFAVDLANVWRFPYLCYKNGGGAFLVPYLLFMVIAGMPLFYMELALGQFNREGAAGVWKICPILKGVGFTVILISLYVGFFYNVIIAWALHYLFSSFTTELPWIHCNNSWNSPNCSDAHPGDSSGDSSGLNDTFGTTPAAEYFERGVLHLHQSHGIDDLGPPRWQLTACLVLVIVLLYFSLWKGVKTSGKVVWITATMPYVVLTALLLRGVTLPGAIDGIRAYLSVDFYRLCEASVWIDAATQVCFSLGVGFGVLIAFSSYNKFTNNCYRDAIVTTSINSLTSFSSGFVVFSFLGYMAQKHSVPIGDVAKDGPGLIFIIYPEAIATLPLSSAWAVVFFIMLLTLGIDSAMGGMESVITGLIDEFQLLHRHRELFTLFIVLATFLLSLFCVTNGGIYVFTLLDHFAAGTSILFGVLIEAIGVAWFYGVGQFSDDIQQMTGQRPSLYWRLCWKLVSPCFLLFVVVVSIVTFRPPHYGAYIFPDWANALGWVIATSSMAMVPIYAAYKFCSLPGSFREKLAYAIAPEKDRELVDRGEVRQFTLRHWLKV

As for `COc1c2occc2c(OC)c2c(=O)cc(C)oc12` [KHELLIN], the concentration at half-maximal activity (AC50) (at Histamine H3 receptor; in experiment [1]; on Mu-type opioid receptor; at Acetylcholinesterase; in [2]; at D(1A) dopamine receptor) was over 30 µM throughout. For the same compound, the AC50 at Thromboxane A2 receptor is over 30 µM; in [3], over 30 µM; in experiment [4] it was over 30 µM; in experiment [5] it was 2.85 µM; in [6], over 30 µM; in experiment [7], over 30 µM. For the same compound, the AC50 in experiment [8], in [9], in [10] and in experiment [11] was over 30 µM in each case.
For the compound `CC(C)[C@@H]1CC[C@@H](C)C[C@H]1O` [LEVOMENTHOL], the AC50 (at Histamine H3 receptor; in [1]; at Mu-type opioid receptor; at Acetylcholinesterase; in experiment [2]; on D(1A) dopamine receptor) was over 30 µM in each case. In addition, the AC50 (at Thromboxane A2 receptor; in experiment [3]; in experiment [4]; in experiment [5]; in experiment [6]; in experiment [7]) was over 30 µM each time. For the same compound, the AC50 in [8], in [9], in [10] and in [11] was over 30 µM each time.
Take `COC(=O)[C@@H](N)Cc1ccc(O)c(O)c1` [MELEVODOPA]: the concentration at half-maximal activity (AC50) (at Histamine H3 receptor; in experiment [1]; on Mu-type opioid receptor; on Acetylcholinesterase; in experiment [2]; on D(1A) dopamine receptor) was over 30 µM throughout. Further, the AC50 was over 30 µM at Thromboxane A2 receptor; over 30 µM in [3]; over 30 µM in [4]; over 30 µM in experiment [5]; 20.3 µM in [6]; over 30 µM in experiment [7]. Further, the AC50 in experiment [8], in experiment [9], in [10] and in experiment [11] was over 30 µM in each case.
On to `C[N+]1(C)CCCC(OC(=O)C(O)(c2ccccc2)c2ccccc2)C1` (stereo not drawn) [MEPENZOLATE], for which the AC50 was over 30 µM at Histamine H3 receptor; 13 µM in experiment [1]; over 30 µM at Mu-type opioid receptor; over 30 µM on Acetylcholinesterase; over 30 µM in experiment [2]; over 30 µM at D(1A) dopamine receptor. Besides, the half-maximal activity concentration (AC50) (on Thromboxane A2 receptor; in experiment [3]; in [4]; in experiment [5]; in experiment [6]; in experiment [7]) was over 30 µM throughout. In addition, the AC50 in experiment [8], in [9], in experiment [10] and in [11] was over 30 µM in each case.
`C=N[C@@H](C(=O)N[C@@H]1C(=O)N2[C@@H]1SC(C)(C)[C@@H]2C(=O)O)c1ccccc1` [METAMPICILLIN]: the AC50 (on Histamine H3 receptor; in experiment [1]; at Mu-type opioid receptor; at Acetylcholinesterase; in experiment [2]; at D(1A) dopamine receptor) was over 30 µM in each case. The half-maximal activity concentration (AC50) at Thromboxane A2 receptor is over 30 µM; in experiment [3], over 30 µM; in [4], over 30 µM; in experiment [5], over 30 µM; in [6], over 30 µM; in [7], 9.26 µM. Besides, the AC50 is over 30 µM in experiment [8], over 30 µM in experiment [9], over 30 µM in experiment [10] and 11.8 µM in [11].
In the case of `O=C(NNCS(=O)(=O)O)c1ccncc1` [METHANIAZIDE], the AC50 (at Histamine H3 receptor; in experiment [1]; at Mu-type opioid receptor; at Acetylcholinesterase; in experiment [2]; at D(1A) dopamine receptor) was over 30 µM each time. The half-maximal activity concentration (AC50) (at Thromboxane A2 receptor; in experiment [3]; in experiment [4]; in experiment [5]; in [6]; in experiment [7]) was over 30 µM throughout. For the same compound, the AC50 in experiment [8], in experiment [9], in experiment [10] and in experiment [11] was over 30 µM each time.
As to `Cc1cc(=O)[nH]c(=S)[nH]1` [METHYLTHIOURACIL], the half-maximal activity concentration (AC50) (on Histamine H3 receptor; in experiment [1]; at Mu-type opioid receptor; at Acetylcholinesterase; in experiment [2]; at D(1A) dopamine receptor) was over 30 µM in each case. Also, the half-maximal activity concentration (AC50) on Thromboxane A2 receptor is over 30 µM; in [3], over 30 µM; in experiment [4] it was over 30 µM; in experiment [5], over 30 µM; in [6] it was over 30 µM; in [7], 13.1 µM. In addition, the AC50 in [8], in experiment [9], in experiment [10] and in experiment [11] was over 30 µM each time.
Regarding `CN(C)c1ccc(O)c2c1C[C@H]1C[C@H]3[C@H](N(C)C)C(O)=C(C(N)=O)C(=O)[C@@]3(O)C(O)=C1C2=O` [MINOCYCLINE], the AC50 (on Histamine H3 receptor; in experiment [1]; on Mu-type opioid receptor; on Acetylcholinesterase; in experiment [2]; at D(1A) dopamine receptor) was over 30 µM throughout. Moreover, the AC50 (at Thromboxane A2 receptor; in experiment [3]; in [4]; in [5]; in [6]; in experiment [7]) was over 30 µM throughout. The AC50 in [8] was over 30 µM; in experiment [9], over 30 µM; in experiment [10] it was over 30 µM; in experiment [11] it was 2.5 µM.
